Results published in publication PMC3605638 (The Journal of Biological Chemistry, 2013).

Target: T1, D. discoideum class I RNR (NrdA + NrdB) (Dictyostelium discoideum, UniProt Q54Q71)
T1 sequence (Q54Q71 1-870): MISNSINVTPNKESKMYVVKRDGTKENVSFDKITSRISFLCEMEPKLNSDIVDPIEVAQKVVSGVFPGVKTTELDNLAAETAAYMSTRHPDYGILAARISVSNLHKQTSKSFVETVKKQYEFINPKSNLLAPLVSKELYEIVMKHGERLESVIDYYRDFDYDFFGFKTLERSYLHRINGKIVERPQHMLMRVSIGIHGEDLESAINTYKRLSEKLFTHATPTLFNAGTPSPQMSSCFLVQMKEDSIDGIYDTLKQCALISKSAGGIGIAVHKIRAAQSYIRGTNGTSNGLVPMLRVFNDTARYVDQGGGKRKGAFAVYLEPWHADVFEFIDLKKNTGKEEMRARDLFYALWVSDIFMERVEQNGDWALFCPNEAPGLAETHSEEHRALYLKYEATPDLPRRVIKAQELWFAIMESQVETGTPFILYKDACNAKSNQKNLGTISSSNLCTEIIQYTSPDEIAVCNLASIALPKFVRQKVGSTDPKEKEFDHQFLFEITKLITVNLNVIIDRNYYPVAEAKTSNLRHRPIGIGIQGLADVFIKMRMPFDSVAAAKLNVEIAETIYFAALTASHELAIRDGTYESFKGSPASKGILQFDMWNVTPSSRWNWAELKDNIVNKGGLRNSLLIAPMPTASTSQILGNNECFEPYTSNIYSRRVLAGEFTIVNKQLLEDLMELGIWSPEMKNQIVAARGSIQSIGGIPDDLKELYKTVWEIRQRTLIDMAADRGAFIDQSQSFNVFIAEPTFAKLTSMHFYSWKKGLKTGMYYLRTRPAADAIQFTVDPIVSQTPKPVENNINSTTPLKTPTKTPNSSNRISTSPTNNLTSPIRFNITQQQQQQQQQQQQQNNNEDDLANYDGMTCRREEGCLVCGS
T1 sequence (P42521 1-338 partner): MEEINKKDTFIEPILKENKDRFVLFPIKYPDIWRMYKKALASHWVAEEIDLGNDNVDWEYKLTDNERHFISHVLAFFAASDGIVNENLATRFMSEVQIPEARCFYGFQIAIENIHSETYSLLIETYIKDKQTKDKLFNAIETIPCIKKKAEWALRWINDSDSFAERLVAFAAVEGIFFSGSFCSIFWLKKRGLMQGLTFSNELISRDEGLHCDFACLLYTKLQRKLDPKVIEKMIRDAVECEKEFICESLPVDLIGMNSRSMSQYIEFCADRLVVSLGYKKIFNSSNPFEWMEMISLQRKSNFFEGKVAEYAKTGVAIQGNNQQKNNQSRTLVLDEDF
Experiment: radiolabelled GDP reduction assay
Type: biochemical
Conditions: dTTP as effector; 0.7 mM [14C]GDP; labelled compound; pH 7.5, 25 °C

SMILES: Nc1nc2c(ncn2[C@@H]2O[C@H](COP(=O)(O)OP(=O)(O)O)[C@@H](O)[C@H]2O)c(=O)[nH]1 [GDP]
- radiolabelled GDP reduction assay: characterized in vitro with CDP or GDP as substrate
